Key:
Experiment in all cases: SelectScreen LanthaScreen Binding
Conditions in all cases: INX-0315 at 100nM
[1] = target: T1, DDR1 (Homo sapiens, UniProt Q08345)
T1 construct: purchased Thermo Fisher Scientific SelectScreen (plus Nanosyn / Reaction Biology for CDK/cyclin lines)
In short: (§1)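 Preset conditions throughout. Primary: 100 nmol/L INX-315, 1% DMSO. Secondary: ten doses, top 1 µmol/L, bottom 0.0495 nmol/L.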

[2] = target: T2, MAP2K1 (MEK1) (Homo sapiens, UniProt Q02750)
T2 construct: purchased Thermo Fisher Scientific SelectScreen (plus Nanosyn / Reaction Biology for CDK/cyclin lines)
In short: as §1

[3] = target: T3, ALK C1156Y (Homo sapiens, UniProt Q9UM73, C1156Y)
T3 construct: purchased Thermo Fisher Scientific SelectScreen (plus Nanosyn / Reaction Biology for CDK/cyclin lines)
In short: as §1

[4] = target: T4, TESK2 (Homo sapiens, UniProt Q96S53)
T4 construct: purchased Thermo Fisher Scientific SelectScreen (plus Nanosyn / Reaction Biology for CDK/cyclin lines)
In short: as §1

[5] = target: T5, EGFR (ErbB1) d746-750 (Homo sapiens, UniProt P00533, DEL746-750)
T5 construct: purchased Thermo Fisher Scientific SelectScreen (plus Nanosyn / Reaction Biology for CDK/cyclin lines)
In short: as §1

[6] = target: T6, MAP2K6 (MKK6) (Homo sapiens, UniProt P52564)
T6 construct: purchased Thermo Fisher Scientific SelectScreen (plus Nanosyn / Reaction Biology for CDK/cyclin lines)
In short: as §1

[7] = target: T7, IRAK3 (Homo sapiens, UniProt Q9Y616)
T7 construct: purchased Thermo Fisher Scientific SelectScreen (plus Nanosyn / Reaction Biology for CDK/cyclin lines)
In short: as §1

[8] = target: T8, BRSK2 (Homo sapiens, UniProt Q8IWQ3)
T8 construct: purchased Thermo Fisher Scientific SelectScreen (plus Nanosyn / Reaction Biology for CDK/cyclin lines)
In short: as §1

[9] = target: T9, SLK (Homo sapiens, UniProt Q9H2G2)
T9 construct: purchased Thermo Fisher Scientific SelectScreen (plus Nanosyn / Reaction Biology for CDK/cyclin lines)
In short: as §1

[10] = target: T10, CDK16 (PCTK1)/cyclin Y (Homo sapiens, UniProt Q00536)
T10 construct: purchased Thermo Fisher Scientific SelectScreen (plus Nanosyn / Reaction Biology for CDK/cyclin lines)
In short: as §1

[11] = target: T11, ACVR2B (Homo sapiens, UniProt Q13705)
T11 construct: purchased Thermo Fisher Scientific SelectScreen (plus Nanosyn / Reaction Biology for CDK/cyclin lines)
In short: as §1

[12] = target: T12, EPHA7 (Homo sapiens, UniProt Q15375)
T12 construct: purchased Thermo Fisher Scientific SelectScreen (plus Nanosyn / Reaction Biology for CDK/cyclin lines)
In short: as §1

[13] = target: T13, HUNK (Homo sapiens, UniProt P57058)
T13 construct: purchased Thermo Fisher Scientific SelectScreen (plus Nanosyn / Reaction Biology for CDK/cyclin lines)
In short: as §1

[14] = target: T14, WNK3 (Homo sapiens, UniProt Q9BYP7)
T14 construct: purchased Thermo Fisher Scientific SelectScreen (plus Nanosyn / Reaction Biology for CDK/cyclin lines)
In short: as §1

[15] = target: T15, TTK (Homo sapiens, UniProt P33981)
T15 construct: purchased Thermo Fisher Scientific SelectScreen (plus Nanosyn / Reaction Biology for CDK/cyclin lines)
In short: as §1

[16] = target: T16, ALK L1196M (Homo sapiens, UniProt Q9UM73, L1196M)
T16 construct: purchased Thermo Fisher Scientific SelectScreen (plus Nanosyn / Reaction Biology for CDK/cyclin lines)
In short: as §1

[17] = target: T17, CAMK2G (CaMKII gamma) (Homo sapiens, UniProt Q13555)
T17 construct: purchased Thermo Fisher Scientific SelectScreen (plus Nanosyn / Reaction Biology for CDK/cyclin lines)
In short: as §1

[18] = target: T18, CDK2/cyclin E1 (Homo sapiens, UniProt P24941)
T18 construct: purchased Millipore 14-475
In short: as §1

[19] = target: T19, MYLK (MLCK) (Homo sapiens, UniProt Q15746)
T19 construct: purchased Thermo Fisher Scientific SelectScreen (plus Nanosyn / Reaction Biology for CDK/cyclin lines)
In short: as §1

[20] = target: T20, PKN2 (PRK2) (Homo sapiens, UniProt Q16513)
T20 construct: purchased Thermo Fisher Scientific SelectScreen (plus Nanosyn / Reaction Biology for CDK/cyclin lines)
In short: as §1

[21] = target: T21, CDC7/DBF4 (Homo sapiens, UniProt O00311)
T21 construct: purchased Thermo Fisher Scientific SelectScreen (plus Nanosyn / Reaction Biology for CDK/cyclin lines)
In short: as §1

[22] = target: T22, AMPK (A2/B2/G1) (Homo sapiens, UniProt P54646)
T22 construct: purchased Thermo Fisher Scientific SelectScreen (plus Nanosyn / Reaction Biology for CDK/cyclin lines)
In short: as §1

[23] = target: T23, MYLK4 (Homo sapiens, UniProt Q86YV6)
T23 construct: purchased Thermo Fisher Scientific SelectScreen (plus Nanosyn / Reaction Biology for CDK/cyclin lines)
In short: as §1

[24] = target: T24, NLK (Homo sapiens, UniProt Q9UBE8)
T24 construct: purchased Thermo Fisher Scientific SelectScreen (plus Nanosyn / Reaction Biology for CDK/cyclin lines)
In short: as §1

[25] = target: T25, MAP3K5 (ASK1) (Homo sapiens, UniProt Q99683)
T25 construct: purchased Thermo Fisher Scientific SelectScreen (plus Nanosyn / Reaction Biology for CDK/cyclin lines)
In short: as §1

[26] = target: T26, PRKACB (PRKAC beta) (Homo sapiens, UniProt P22694)
T26 construct: purchased Thermo Fisher Scientific SelectScreen (plus Nanosyn / Reaction Biology for CDK/cyclin lines)
In short: as §1

[27] = target: T27, ULK1 (Homo sapiens, UniProt O75385)
T27 construct: purchased Thermo Fisher Scientific SelectScreen (plus Nanosyn / Reaction Biology for CDK/cyclin lines)
In short: as §1

[28] = target: T28, VRK2 (Homo sapiens, UniProt Q86Y07)
T28 construct: purchased Thermo Fisher Scientific SelectScreen (plus Nanosyn / Reaction Biology for CDK/cyclin lines)
In short: as §1

[29] = target: T29, BRAF V599E (Homo sapiens, UniProt P15056, V600E)
T29 construct: purchased Thermo Fisher Scientific SelectScreen (plus Nanosyn / Reaction Biology for CDK/cyclin lines)
In short: as §1

[30] = target: T30, CDK11 (Inactive) (Homo sapiens, UniProt Q9BWU1)
T30 construct: purchased Thermo Fisher Scientific SelectScreen (plus Nanosyn / Reaction Biology for CDK/cyclin lines)
In short: as §1

[31] = target: T31, MLCK (MLCK2) (Homo sapiens, UniProt Q32MK0)
T31 construct: purchased Thermo Fisher Scientific SelectScreen (plus Nanosyn / Reaction Biology for CDK/cyclin lines)
In short: as §1

[32] = target: T32, LATS2 (Homo sapiens, UniProt Q9NRM7)
T32 construct: purchased Thermo Fisher Scientific SelectScreen (plus Nanosyn / Reaction Biology for CDK/cyclin lines)
In short: as §1

[33] = target: T33, ALK F1174L (Homo sapiens, UniProt Q9UM73, F1174L)
T33 construct: purchased Thermo Fisher Scientific SelectScreen (plus Nanosyn / Reaction Biology for CDK/cyclin lines)
In short: as §1

[34] = target: T34, ACVR1 (ALK2) R206H (Homo sapiens, UniProt Q04771, R206H)
T34 construct: purchased Thermo Fisher Scientific SelectScreen (plus Nanosyn / Reaction Biology for CDK/cyclin lines)
In short: as §1

[35] = target: T35, AMPK (A1/B2/G1) (Homo sapiens, UniProt Q13131)
T35 construct: purchased Thermo Fisher Scientific SelectScreen (plus Nanosyn / Reaction Biology for CDK/cyclin lines)
In short: as §1

[36] = target: T36, CAMKK1 (CAMKKA) (Homo sapiens, UniProt Q8N5S9)
T36 construct: purchased Thermo Fisher Scientific SelectScreen (plus Nanosyn / Reaction Biology for CDK/cyclin lines)
In short: as §1

[37] = target: T37, MAPK8 (JNK1) (Homo sapiens, UniProt P45983)
T37 construct: purchased Thermo Fisher Scientific SelectScreen (plus Nanosyn / Reaction Biology for CDK/cyclin lines)
In short: as §1

[38] = target: T38, FGFR1 V561M (Homo sapiens, UniProt P11362, V561M)
T38 construct: purchased Thermo Fisher Scientific SelectScreen (plus Nanosyn / Reaction Biology for CDK/cyclin lines)
In short: as §1

T21 sequence (O00311 whole entry): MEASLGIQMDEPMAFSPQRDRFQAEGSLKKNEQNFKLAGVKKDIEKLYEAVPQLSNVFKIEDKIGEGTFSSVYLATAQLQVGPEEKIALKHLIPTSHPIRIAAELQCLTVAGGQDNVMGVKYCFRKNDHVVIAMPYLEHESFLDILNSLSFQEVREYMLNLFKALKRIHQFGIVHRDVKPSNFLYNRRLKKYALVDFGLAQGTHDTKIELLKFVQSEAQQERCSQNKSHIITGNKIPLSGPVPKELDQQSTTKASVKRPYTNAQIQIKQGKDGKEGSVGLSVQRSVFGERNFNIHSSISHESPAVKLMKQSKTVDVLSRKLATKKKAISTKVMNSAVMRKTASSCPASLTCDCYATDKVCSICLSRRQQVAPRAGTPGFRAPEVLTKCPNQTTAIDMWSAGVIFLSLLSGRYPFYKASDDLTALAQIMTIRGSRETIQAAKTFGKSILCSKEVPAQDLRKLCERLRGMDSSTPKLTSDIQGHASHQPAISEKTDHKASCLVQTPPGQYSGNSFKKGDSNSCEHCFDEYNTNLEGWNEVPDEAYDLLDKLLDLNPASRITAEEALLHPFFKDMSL
T21 sequence (Q9UBU7 whole entry partner): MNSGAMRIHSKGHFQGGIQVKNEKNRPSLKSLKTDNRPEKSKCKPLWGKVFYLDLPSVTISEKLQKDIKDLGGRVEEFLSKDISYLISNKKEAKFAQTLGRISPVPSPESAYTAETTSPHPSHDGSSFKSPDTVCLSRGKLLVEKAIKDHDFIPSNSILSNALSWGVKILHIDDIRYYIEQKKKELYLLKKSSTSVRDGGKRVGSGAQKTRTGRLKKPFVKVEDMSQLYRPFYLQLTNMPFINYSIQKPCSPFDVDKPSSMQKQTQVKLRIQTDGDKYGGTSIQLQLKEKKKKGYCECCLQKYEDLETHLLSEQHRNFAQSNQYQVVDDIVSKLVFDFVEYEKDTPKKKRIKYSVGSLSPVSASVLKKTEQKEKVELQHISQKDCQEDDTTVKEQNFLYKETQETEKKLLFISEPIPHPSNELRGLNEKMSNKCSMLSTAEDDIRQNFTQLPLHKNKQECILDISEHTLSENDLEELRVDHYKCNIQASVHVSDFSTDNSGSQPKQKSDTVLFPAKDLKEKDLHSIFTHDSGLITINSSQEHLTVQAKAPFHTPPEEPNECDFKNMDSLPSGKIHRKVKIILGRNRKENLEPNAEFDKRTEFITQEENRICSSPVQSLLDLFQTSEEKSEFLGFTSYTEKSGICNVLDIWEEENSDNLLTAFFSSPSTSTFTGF
T33 sequence (Q9UM73 19-1620 F1174L): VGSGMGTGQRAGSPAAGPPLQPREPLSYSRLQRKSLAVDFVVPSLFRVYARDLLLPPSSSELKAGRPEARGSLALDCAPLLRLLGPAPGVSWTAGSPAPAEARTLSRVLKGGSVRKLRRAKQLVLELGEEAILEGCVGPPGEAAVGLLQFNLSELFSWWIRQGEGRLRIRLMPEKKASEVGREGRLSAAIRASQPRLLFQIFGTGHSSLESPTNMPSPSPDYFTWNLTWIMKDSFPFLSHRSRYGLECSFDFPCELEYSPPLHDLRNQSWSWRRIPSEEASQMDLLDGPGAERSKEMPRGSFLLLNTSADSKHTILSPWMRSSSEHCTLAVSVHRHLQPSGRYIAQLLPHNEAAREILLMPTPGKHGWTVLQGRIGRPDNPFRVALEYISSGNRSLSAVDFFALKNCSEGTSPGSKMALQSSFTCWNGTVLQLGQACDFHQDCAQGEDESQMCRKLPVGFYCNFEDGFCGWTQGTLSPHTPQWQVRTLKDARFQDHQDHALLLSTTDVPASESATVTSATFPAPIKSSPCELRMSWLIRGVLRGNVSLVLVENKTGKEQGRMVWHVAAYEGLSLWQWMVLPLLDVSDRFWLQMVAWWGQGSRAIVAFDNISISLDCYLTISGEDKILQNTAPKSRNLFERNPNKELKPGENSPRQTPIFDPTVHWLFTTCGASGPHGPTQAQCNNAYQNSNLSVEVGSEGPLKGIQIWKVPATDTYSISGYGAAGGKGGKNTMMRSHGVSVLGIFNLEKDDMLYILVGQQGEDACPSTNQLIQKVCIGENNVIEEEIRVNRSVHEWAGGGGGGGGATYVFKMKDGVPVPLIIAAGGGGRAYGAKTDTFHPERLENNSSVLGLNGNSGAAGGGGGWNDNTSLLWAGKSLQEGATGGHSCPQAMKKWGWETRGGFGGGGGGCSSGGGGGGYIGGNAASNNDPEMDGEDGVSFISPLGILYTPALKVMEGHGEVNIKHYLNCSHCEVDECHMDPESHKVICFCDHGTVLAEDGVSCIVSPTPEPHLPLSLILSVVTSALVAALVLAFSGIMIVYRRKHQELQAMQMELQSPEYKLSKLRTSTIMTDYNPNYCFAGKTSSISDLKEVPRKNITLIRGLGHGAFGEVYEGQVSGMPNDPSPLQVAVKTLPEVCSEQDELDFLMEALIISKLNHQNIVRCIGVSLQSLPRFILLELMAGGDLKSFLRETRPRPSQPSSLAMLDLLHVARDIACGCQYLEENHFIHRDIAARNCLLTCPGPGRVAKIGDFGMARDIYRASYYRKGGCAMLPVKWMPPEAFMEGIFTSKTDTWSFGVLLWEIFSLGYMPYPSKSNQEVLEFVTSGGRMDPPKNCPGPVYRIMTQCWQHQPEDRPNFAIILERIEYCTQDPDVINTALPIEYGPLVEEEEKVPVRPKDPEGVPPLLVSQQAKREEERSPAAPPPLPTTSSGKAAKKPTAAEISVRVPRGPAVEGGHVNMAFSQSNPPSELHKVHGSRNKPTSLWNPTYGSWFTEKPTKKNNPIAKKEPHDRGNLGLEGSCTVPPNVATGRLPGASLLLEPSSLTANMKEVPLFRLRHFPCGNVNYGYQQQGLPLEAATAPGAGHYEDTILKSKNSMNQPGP
T19 sequence (Q15746 whole entry): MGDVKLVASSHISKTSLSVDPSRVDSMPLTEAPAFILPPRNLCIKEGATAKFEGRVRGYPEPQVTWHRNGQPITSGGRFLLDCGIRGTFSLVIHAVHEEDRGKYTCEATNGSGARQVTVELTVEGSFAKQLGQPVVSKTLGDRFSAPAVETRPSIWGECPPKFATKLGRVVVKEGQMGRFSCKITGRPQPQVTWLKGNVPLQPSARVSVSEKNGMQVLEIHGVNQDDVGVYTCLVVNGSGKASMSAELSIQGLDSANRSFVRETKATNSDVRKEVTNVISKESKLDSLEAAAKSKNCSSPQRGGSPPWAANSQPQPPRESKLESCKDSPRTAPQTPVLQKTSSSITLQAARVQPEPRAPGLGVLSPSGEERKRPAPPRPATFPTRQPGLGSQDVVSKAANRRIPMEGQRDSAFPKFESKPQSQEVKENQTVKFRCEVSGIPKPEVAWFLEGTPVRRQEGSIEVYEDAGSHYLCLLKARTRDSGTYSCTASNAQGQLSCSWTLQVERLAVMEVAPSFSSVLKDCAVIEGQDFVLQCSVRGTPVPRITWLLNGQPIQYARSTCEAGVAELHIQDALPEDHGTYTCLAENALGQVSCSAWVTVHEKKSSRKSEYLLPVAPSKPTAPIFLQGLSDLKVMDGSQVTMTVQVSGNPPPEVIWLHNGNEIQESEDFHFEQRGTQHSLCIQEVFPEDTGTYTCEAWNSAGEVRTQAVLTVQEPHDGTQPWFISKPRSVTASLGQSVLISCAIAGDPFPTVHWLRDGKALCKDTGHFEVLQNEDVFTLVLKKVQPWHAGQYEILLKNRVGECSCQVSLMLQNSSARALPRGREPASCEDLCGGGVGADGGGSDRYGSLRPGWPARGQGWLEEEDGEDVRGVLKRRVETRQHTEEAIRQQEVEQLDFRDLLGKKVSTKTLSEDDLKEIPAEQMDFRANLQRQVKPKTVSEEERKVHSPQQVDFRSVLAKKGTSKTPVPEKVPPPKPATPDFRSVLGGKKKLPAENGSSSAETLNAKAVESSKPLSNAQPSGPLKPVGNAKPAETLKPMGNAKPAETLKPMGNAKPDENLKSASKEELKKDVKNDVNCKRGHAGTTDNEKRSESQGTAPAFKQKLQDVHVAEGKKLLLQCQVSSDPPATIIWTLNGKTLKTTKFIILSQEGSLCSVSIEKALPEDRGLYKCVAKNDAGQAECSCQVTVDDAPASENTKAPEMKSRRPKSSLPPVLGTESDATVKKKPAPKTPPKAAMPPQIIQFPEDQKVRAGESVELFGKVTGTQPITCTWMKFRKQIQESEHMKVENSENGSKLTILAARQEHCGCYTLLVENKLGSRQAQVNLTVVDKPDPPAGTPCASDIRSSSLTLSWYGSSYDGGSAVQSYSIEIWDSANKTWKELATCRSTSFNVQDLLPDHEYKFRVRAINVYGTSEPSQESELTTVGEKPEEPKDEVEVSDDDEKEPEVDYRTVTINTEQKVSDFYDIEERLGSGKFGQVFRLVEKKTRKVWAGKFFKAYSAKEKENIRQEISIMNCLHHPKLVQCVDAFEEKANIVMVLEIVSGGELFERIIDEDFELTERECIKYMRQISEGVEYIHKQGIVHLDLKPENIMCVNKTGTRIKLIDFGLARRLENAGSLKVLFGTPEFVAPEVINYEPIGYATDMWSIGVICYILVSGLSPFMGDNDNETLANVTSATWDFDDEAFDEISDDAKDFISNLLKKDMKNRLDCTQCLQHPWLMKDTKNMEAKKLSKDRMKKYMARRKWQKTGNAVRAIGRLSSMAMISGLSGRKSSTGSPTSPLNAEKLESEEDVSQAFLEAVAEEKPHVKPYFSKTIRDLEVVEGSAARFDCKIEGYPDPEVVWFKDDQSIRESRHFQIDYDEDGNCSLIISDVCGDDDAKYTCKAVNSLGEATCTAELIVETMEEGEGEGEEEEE
T6 sequence (P52564 whole entry): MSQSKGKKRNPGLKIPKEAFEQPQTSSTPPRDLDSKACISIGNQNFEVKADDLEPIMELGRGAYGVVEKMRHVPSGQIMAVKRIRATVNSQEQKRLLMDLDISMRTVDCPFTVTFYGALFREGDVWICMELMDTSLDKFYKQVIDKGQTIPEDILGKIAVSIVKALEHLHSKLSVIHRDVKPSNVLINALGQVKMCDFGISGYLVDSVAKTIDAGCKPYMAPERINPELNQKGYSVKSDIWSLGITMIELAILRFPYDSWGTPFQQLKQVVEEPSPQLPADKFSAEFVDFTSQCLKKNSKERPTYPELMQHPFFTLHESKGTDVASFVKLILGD

`NS(=O)(=O)c1ccc(Nc2ncc3cc4n(c3n2)C2(CCCCC2)C(=O)NN4)cc1` [INX-315] showed an inhibition at 0.1 µM [1] of 3%, an inhibition at 0.1 µM [2] of 5% and an inhibition at 0.1 µM [3] of 9%. For the same compound, the inhibition at 0.1 µM [4] was -1%, the inhibition at 0.1 µM [5] was 0% and the inhibition at 0.1 µM [6] was -3%. It also gave an inhibition at 0.1 µM [7] of 45%, an inhibition at 0.1 µM [8] of 4% and an inhibition at 0.1 µM [9] of 22%. For the same compound, the inhibition at 0.1 µM [10] was 64%, the inhibition at 0.1 µM [11] was -2% and the inhibition at 0.1 µM [12] was 9%. The inhibition at 0.1 µM [13] was -5%, the inhibition at 0.1 µM [14] was 2% and the inhibition at 0.1 µM [15] was 49%. It also gave an inhibition at 0.1 µM [16] of 7%, an inhibition at 0.1 µM [17] of -1% and an inhibition at 0.1 µM [18] of 98%. For the same compound, the inhibition at 0.1 µM [19] was 6%, the inhibition at 0.1 µM [20] was 11% and the inhibition at 0.1 µM [21] was -1%. For the same compound, the inhibition at 0.1 µM [22] was 9%, the inhibition at 0.1 µM [23] was 20% and the inhibition at 0.1 µM [24] was 0%. It also gave an inhibition at 0.1 µM [25] of 10%, an inhibition at 0.1 µM [26] of 1% and an inhibition at 0.1 µM [27] of 1%. It also gave an inhibition at 0.1 µM [28] of 2%, an inhibition at 0.1 µM [29] of -2% and an inhibition at 0.1 µM [30] of 2%. For the same compound, the inhibition at 0.1 µM [31] was 5%, the inhibition at 0.1 µM [32] was 8% and the inhibition at 0.1 µM [33] was 12%. The inhibition at 0.1 µM [34] was -1%, the inhibition at 0.1 µM [35] was 36% and the inhibition at 0.1 µM [36] was 6%. It also gave an inhibition at 0.1 µM [37] of 18% and an inhibition at 0.1 µM [38] of 12%.

From paper PMC10905675, “INX-315, a Selective CDK2 Inhibitor, Induces Cell Cycle Arrest and Senescence in Solid Tumors” (Cancer Discovery, 2023)
